Consider 20 compounds from patent publication US20130324707A1, “SYNTHETIC AMPHIPHILES FOR MEMBRANE PROTEIN MANIPULATION” (The Board of Trustees of the Leland Stanford Junior …, priority 2009, published 2013).

In series [1] the test system is human β2 adrenergic receptor-T4-lyosome fusion protein (β2AR-T4L). The series is described as follows: Thermal stabilization (Tm) of β2AR-T4L in amphiphile, normalized peak ratio 341 nm/356 nm. Also on record: Tm: unit: °C. Conditions: for Tm: β2AR-T4L. An excerpt:
FIG. 3 illustrates the results of comparing MNGs to MPAs at 10×CMC for stabilization efficacy of β2 adrenergic receptor-T4-lyosome fusion protein (β2AR-T4L), according to an embodiment of the invention.
FIG. 4 illustrates the results of comparing MNGs to MPAs at 50×CMC for stabilization efficacy of β2AR-T4L, according to an embodiment of the invention. Similar to FIG. 3, the horizontal dotted line extending from 50% on the y-axis in FIG. 4 indicates the melting temperature (Tm).
The branched amphiphiles of the invention have shown to have several advantageous properties that match or surpass those of many known amphiphiles. The branched nature provide improved stabilization, attributable to the dual saccharide chains, and improved solubilization, attributable to the dual hydrophobic tail groups. FIGS. 3 and 4 show a comparative study showing normalized peak ratios (341 nm/356 nm) for six different amphiphiles (illustrated in Schemes F and G) from 25° C. to 85° C., at 10×CMC and 50×CMC for human β2 adrenergic receptor-T4-lyosome fusion protein (β2AR-T4L).

Another series relates to M3 muscarinic receptor. Description: [3H]N-methylscopolamine binding to purified M3 muscarinic receptor in amphiphiles/detergents. The method, then: For FIG. 5, the samples (DDM, MNG-28, and MNG-14) were combined with HEPES pH 7.5 buffer in a 100 mM NaCl solution. […] Therefore, the amphiphilic compounds described herein, such as the MNG amphiphiles, provide new options for enhancing the function and analysis of various isolated and/or purified proteins and receptors.

In a further series the target is β2AR (Homo sapiens, UniProt P07550). Description: Lipidic cubic phase (LCP) crystallization of agonist-bound β2AR. Conditions: detergent present before incorporation into LCP. An excerpt:
LCP methods have proven useful for crystallizing membrane proteins, including G protein-coupled receptors (GPCRs). However, the process of incorporating membrane proteins from a detergent solubilized state into LCP can lead to denaturation of the protein.

Series [2] relates to human β2 adrenergic receptor-T4-lyosome fusion protein (β2AR-T4L). The series is described as follows: Thermal stabilization (Tm) of β2AR-T4L in amphiphile, normalized peak ratio 341 nm/356 nm. The conditions noted are these: 250 × CMC; β2AR-T4L. Further details: Tm: unit: °C.
Series [3] concerns R. capsulatus LHI-RC superassembly. Description: R. capsulatus photosynthetic superassembly solubilization and purification assay (detergent classification). Also on record: species or system Rhodobacter capsulatus. The conditions noted are these: words printed in the Classification column instead of a class: behaviour of the amphiphile. The protocol: To begin the solubilization and purification process, frozen aliquots of R. capsulatus membranes were thawed, homogenized, and equilibrated to 32° C. for 30 minutes.
The membrane samples were allowed to incubate with the amphiphile for 30 minutes at 32° C. The solubilized material was then separated from the membrane debris in an ultracentrifuge at 315,000×g at 4° C. for 30 minutes. […] The tubes were then incubated and inverted for 1 hour at 4° C.
Once binding was complete, samples were loaded onto resin-retaining spin columns (e.g., emptied His Spin Trap™ columns; GE Healthcare). The columns were then inserted into a 2 mL microcentrifuge tube to retain the filtered solution during centrifugation. […] Finally, protein was eluted into a fresh microcentrifuge tube with three 0.2 mL elution buffer aliquots (this buffer was identical to binding buffer with the addition of 1 M imidazole).
The R. capsulatus LHI-RC complexes extracted and purified by this procedure contain large numbers of cofactors that have absorptions at distinct wavelengths, and each component of the LHI-RC superassembly has a different inherent stability outside the lipid bilayer. The solubilization protocol outlined above therefore provides a multifaceted assessment of the efficacy of conventional detergents and novel amphiphiles. UV-Vis absorption spectroscopy data obtained at various stages of the protocol allow one to determine which protein components have degraded at these stages. […] The disruption potential was measured as the yield of superassembly extracted during solubilization (or, alternatively and more precisely, as the absence of superassembly in the pellet from the spin following solubilization).
The stabilizing propensity was determined from the spectra of the purified protein.

Series [4] in a line: Critical micelle concentration (CMC) by fluorescent dye uptake. The format is physicochemical. An excerpt:
The Critical Micelle Concentrations (CMCs) of compounds of the invention can be determined by standard techniques known to those of skill in the art. For example, CMCs of the carbohydrate-based amphiphiles described herein can be determined by monitoring uptake of a fluorescent dye (e.g., a dye such as 1,6-diphenylhexatriene) with increasing detergent concentration, monitored by fluorescence spectroscopy.

[5] abbreviates: 10 × CMC, scan from 25° C. to 85° C.
The mark [6] stands for this setting: concentration not given, matches most favourable (*) Tm minus DDM 63.5.

Marks after values point to notes of the source that are not given here.

β2AR, sequence (P07550 whole entry): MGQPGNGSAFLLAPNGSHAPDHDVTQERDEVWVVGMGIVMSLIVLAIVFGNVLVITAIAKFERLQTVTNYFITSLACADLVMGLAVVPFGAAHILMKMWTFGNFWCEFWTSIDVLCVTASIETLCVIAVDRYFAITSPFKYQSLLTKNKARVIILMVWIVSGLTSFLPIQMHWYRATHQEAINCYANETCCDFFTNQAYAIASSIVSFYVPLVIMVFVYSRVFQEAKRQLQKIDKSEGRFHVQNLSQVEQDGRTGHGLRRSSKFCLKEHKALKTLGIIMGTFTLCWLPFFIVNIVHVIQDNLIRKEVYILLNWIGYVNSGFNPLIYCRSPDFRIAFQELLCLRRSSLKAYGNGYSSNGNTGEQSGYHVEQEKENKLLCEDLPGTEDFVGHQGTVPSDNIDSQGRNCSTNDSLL

Regarding `CCCCCCCCCCCCO[C@@H]1O[C@H](CO)[C@@H](O[C@H]2O[C@H](CO)[C@@H](O)[C@H](O)[C@H]2O)[C@H](O)[C@H]1O` [DDM, dodecylmaltoside, reference compound], the Tm in series [1] (setting [5]) is reported as 63.5 (n = 4)*; in series [1] (50 × CMC) it was 63.0 (n = 4); in series [2], 62.2 (n = 4). Besides, the “Specific binding to [3H]N-methylscopolamine” value in the series on M3 muscarinic receptor (M3 receptor purified from baculovirus infected insect cells using the detergent) is “little specific binding”. At β2AR, the “Outcome of LCP crystallization of agonist-bound β2AR” value is on record as “not sufficiently stable to survive the transition to LCP”.
`CC(C)(C)c1ccc(C(=O)NCC(CNC(=O)c2ccc(C(C)(C)C)cc2)(COC2OC(CO)C(O)C(O)C2O)COC2OC(CO)C(O)C(O)C2O)cc1` (stereo not shown) [GNG-3]: the “Classification (entry in words)” value in series [3] is “aggregation”.
With `O=C(NCC(CNC(=O)C1CCCCC1)(COC1OC(CO)C(O)C(O)C1O)COC1OC(CO)C(O)C(O)C1O)C1CCCCC1` (stereo not shown) [GNG-5], the “Classification (entry in words)” value in series [3] is reported as “Insoluble”.
Same read-out and setting: for `CC(C)(C)c1ccc(OCC(COc2ccc(C(C)(C)C)cc2)(COC2OC(CO)C(O)C(O)C2O)COC2OC(CO)C(O)C(O)C2O)cc1` (stereo not shown) [GNG-8] the value was “aggregation”.
For `CCCCCCCC(CCCCCCC)(COC1OC(CO)C(O)C(O)C1O)COC1OC(CO)C(O)C(O)C1O` (stereo not shown) [GNG-9], in series [4], the “CMC” value is listed as 0.11 mM and the “CMC (%)” value is listed as 0.0066%. The “Classification (entry in words)” value in series [3] is reported as “limited”.
As to `CCCCCCCCCCC(=O)NCC(CNC(=O)CCCCCCCCCC)(CO[C@H]1OC(CO)[C@H](O[C@@H]2OC(CO)[C@H](O)C(O)[C@H]2O)C(O)[C@H]1O)CO[C@H]1OC(CO)[C@H](O[C@@H]2OC(CO)[C@H](O)C(O)[C@H]2O)C(O)[C@H]1O` (stereo partly shown) [MNG-1], the “CMC” value in series [4] was 0.017 mM. Further, the “CMC (%)” value in series [4] came to 0.0019%. Also, the ΔTm entry in series [1] (10 × CMC, relative to DDM) is on record as “+1.6”; in series [1] (50 × CMC, relative to DDM) it was “+2.1”; in series [1] (setting [6]), “+1.6”. Further, the Tm in series [1] (setting [5]) and in series [1] (50 × CMC) was 65.1 (n = 3)* each time.
Turning to `CCCCCCCCCCCC(CCCCCCCCCCC)(CO[C@H]1OC(CO)[C@H](O[C@@H]2OC(CO)[C@H](O)C(O)[C@H]2O)C(O)[C@H]1O)CO[C@H]1OC(CO)[C@H](O[C@@H]2OC(CO)[C@H](O)C(O)[C@H]2O)C(O)[C@H]1O` (stereo partly shown) [MNG-4], in series [4], the “CMC” value was determined as 0.0037 mM. The “CMC (%)” value in series [4] was 0.00038%. Moreover, the ΔTm entry is listed as “+0.6” in series [1] (10 × CMC, relative to DDM); “+4.3” in series [1] (50 × CMC, relative to DDM); “+3.8” in series [1] (setting [6]). Moreover, the Tm in series [1] (setting [5]) is 64.1 (n = 3); in series [1] (50 × CMC), 67.3 (n = 3)*.
For `CCCCCCCCCCOCC(COCCCCCCCCCC)(CO[C@H]1OC(CO)[C@H](O[C@@H]2OC(CO)[C@H](O)C(O)[C@H]2O)C(O)[C@H]1O)CO[C@H]1OC(CO)[C@H](O[C@@H]2OC(CO)[C@H](O)C(O)[C@H]2O)C(O)[C@H]1O` (stereo partly shown) [MNG-6], the “CMC” value in series [4] is recorded as 0.009 mM. In addition, in series [4], the “CMC (%)” value turned out to be 0.00096%. Also, the ΔTm entry is “+1.1” in series [1] (10 × CMC, relative to DDM); “+4.1” in series [1] (50 × CMC, relative to DDM); “+3.6” in series [1] (setting [6]). Besides, the Tm in series [1] (setting [5]) is listed as 64.6 (n = 3); in series [1] (50 × CMC) it was 67.1 (n = 3)*.
On to `CCCCCCCCC(=O)NCC(CNC(=O)CCCCCCCC)(COC1OC(CO)C(OC2OC(CO)C(O)C(O)C2O)C(O)C1O)COC1OC(CO)C(OC2OC(CO)C(O)C(O)C2O)C(O)C1O` (stereo not shown) [MNG-20], for which, in series [4], the “CMC” value turned out to be 0.3 mM and the “CMC (%)” value is given as 0.0319%.
`CCCCCCCC(=O)NCC(CNC(=O)C(C1CCCCC1)C1CCCCC1)(COC1OC(CO)C(OC2OC(CO)C(O)C(O)C2O)C(O)C1O)COC1OC(CO)C(OC2OC(CO)C(O)C(O)C2O)C(O)C1O` (stereo not shown) [MNG-21]: in series [4], the “CMC” value is reported as 0.24 mM and the “CMC (%)” value stood at 0.0268%.
On to `O=C(Cc1cc(C(F)(F)F)cc(C(F)(F)F)c1)NCC(CNC(=O)Cc1cc(C(F)(F)F)cc(C(F)(F)F)c1)(COC1OC(CO)C(OC2OC(CO)C(O)C(O)C2O)C(O)C1O)COC1OC(CO)C(OC2OC(CO)C(O)C(O)C2O)C(O)C1O` (stereo not shown) [MNG-23], for which, in series [4], the “CMC” value was 0.9 mM and the “CMC (%)” value came out at 0.1162%.
On the same counts, the results for `O=C(CCc1cc(C(F)(F)F)cc(C(F)(F)F)c1)NCC(CNC(=O)CCc1cc(C(F)(F)F)cc(C(F)(F)F)c1)(COC1OC(CO)C(OC2OC(CO)C(O)C(O)C2O)C(O)C1O)COC1OC(CO)C(OC2OC(CO)C(O)C(O)C2O)C(O)C1O` (stereo not shown) [MNG-24] are 0.84 mM and 0.1108%.
On the same counts, the results for `CC(C)(C)C1CCC(C(=O)NCC(CNC(=O)C2CCC(C(C)(C)C)CC2)(COC2OC(CO)C(OC3OC(CO)C(O)C(O)C3O)C(O)C2O)COC2OC(CO)C(OC3OC(CO)C(O)C(O)C3O)C(O)C2O)CC1` (stereo not shown) [MNG-26] are 0.12 mM and 0.0134%.
The like results for `CCCCCCCCCCCC(=O)NCC(CNC(=O)CCCCCCCCCCC)(COC1OC(CO)C(OC2OC(CO)C(O)C(O)C2O)C(O)C1O)COC1OC(CO)C(OC2OC(CO)C(O)C(O)C2O)C(O)C1O` (stereo not shown) [MNG-27] were, in that order, 0.008 mM and 0.0009%.
As to `CCCCCCCCCC(CCCCCCCCC)(COC1OC(CO)C(OC2OC(CO)C(O)C(O)C2O)C(O)C1O)COC1OC(CO)C(OC2OC(CO)C(O)C(O)C2O)C(O)C1O` (stereo not shown) [MNG-28], in series [4], the “CMC” value stood at 0.018 mM and the “CMC (%)” value is 0.0018%. In addition, the “Binding (counts per minute (CPM)) of [3H]NMS compared to the use of DDM alone” value in the series on M3 muscarinic receptor (upon addition of the amphiphile, HEPES pH 7.5, 100 mM NaCl) was “three-fold greater”.
In the case of `CCCCCCCCCOCC(COCCCCCCCCC)(COC1OC(CO)C(OC2OC(CO)C(O)C(O)C2O)C(O)C1O)COC1OC(CO)C(OC2OC(CO)C(O)C(O)C2O)C(O)C1O` (stereo not shown) [MNG-30], in series [4], the “CMC” value came out at 0.017 mM and the “CMC (%)” value is 0.0018%.
On the same counts, the results for `CCCCCCCCOCC(COCCCCCCCC)(COC1OC(CO)C(OC2OC(CO)C(O)C(O)C2O)C(O)C1O)COC1OC(CO)C(OC2OC(CO)C(O)C(O)C2O)C(O)C1O` (stereo not shown) [MNG-31] are 0.034 mM and 0.0034%.
On the same counts, the results for `CCCCC(CCCC)OCC(COC(CCCC)CCCC)(COC1OC(CO)C(OC2OC(CO)C(O)C(O)C2O)C(O)C1O)COC1OC(CO)C(OC2OC(CO)C(O)C(O)C2O)C(O)C1O` (stereo not shown) [MNG-33] are 0.092 mM and 0.0095%.
`CCCCCCCCCCC(=O)NCCOC1OC(CO)C(OC2OC(CO)C(O)C(O)C2O)C(O)C1O` (stereo not shown) [MPA-6]: the ΔTm in series [1] (10 × CMC, relative to DDM) is given as −12.1; in series [1] (setting [6]), −12.1. Further, the Tm in series [1] (setting [5]) was 51.4 (n = 3)*.
On to `CCCCCCCCCCOCCOC1OC(CO)C(OC2OC(CO)C(O)C(O)C2O)C(O)C1O` (stereo not shown) [MPA-11], for which the ΔTm is −4.7 in series [1] (10 × CMC, relative to DDM); −4.7 in series [1] (50 × CMC, relative to DDM); −4.7 in series [1] (setting [6]). Also, the Tm is recorded as 58.8 (n = 3)* in series [1] (setting [5]) and 58.3 (n = 3) in series [1] (50 × CMC).
